{"source": "patent US20160297830A1", "about": "“NOVEL COMPOUNDS USEFUL FOR THE TREATMENT OF BACTERIAL INFECTIOUS DISEASES” (GALAPAGOS NV, priority 2013, published 2016)", "key": {"[1]": {"molecular_target": "DNA Polymerase IIIα (DnaE) from Staphylococcus aureus (Staphylococcus aureus, UniProt Q6GG04)", "sequence (Q6GG04 1-1022)": "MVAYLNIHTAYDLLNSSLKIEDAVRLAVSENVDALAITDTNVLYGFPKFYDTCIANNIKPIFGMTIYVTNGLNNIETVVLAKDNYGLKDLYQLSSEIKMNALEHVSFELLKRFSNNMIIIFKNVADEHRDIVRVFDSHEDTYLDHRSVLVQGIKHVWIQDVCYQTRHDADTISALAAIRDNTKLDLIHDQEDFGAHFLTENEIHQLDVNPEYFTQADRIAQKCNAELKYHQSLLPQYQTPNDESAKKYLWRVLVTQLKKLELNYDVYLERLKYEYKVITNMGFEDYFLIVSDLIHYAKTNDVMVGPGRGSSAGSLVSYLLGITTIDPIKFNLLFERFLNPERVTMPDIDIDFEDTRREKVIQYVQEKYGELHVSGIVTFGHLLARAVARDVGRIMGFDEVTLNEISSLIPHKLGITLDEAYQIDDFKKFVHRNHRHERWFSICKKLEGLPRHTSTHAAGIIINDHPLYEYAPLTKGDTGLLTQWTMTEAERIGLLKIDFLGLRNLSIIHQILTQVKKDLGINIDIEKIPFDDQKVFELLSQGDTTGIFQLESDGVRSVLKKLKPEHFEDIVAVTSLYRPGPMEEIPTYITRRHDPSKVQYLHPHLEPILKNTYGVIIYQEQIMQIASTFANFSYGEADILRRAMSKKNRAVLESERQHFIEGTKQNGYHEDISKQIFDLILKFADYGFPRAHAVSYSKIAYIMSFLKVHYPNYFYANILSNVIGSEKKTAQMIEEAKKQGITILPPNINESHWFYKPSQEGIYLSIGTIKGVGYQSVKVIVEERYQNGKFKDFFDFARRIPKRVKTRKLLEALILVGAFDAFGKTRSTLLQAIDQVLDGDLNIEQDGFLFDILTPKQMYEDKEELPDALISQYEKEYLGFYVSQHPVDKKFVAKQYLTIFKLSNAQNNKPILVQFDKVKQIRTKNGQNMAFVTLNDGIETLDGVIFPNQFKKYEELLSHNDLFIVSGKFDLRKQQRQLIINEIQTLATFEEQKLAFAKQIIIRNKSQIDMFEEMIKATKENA", "experiment": "biochemical", "details": "DNA polymerase III, S. aureus; read-out: IC50 semiquantitative scoring, S. aureus"}, "[2]": {"test_system": "H. influenza Hi47 clinical strain, Ampicillin Resistant", "experiment": "organism not typed", "assay_type": "cell-based", "details": "read-out: MIC Hi47"}, "[3]": {"test_system": "H. influenza Hi106 ATCC 51907", "experiment": "organism not typed", "assay_type": "cell-based", "details": "read-out: MIC Hi106"}, "[4]": {"test_system": "H. influenza Hi10 clinical strain", "experiment": "organism not typed", "assay_type": "cell-based", "details": "read-out: MIC Hi10"}, "S. aureus Sa1 ATCC 13709": {"test_system": "S. aureus Sa1 ATCC 13709", "experiment": "microbe, parasite or virus in culture", "assay_type": "cell-based", "details": "Staphylococcus aureus, ATCC13709; S. aureus Sa1 ATCC 13709, sensitive strain; Mueller-Hinton Broth, 37° C.; read-out: MIC Sa1"}, "[5]": {"test_system": "E. coli Ec50 efflux pump KO", "experiment": "microbe, parasite or virus in culture", "assay_type": "cell-based", "details": "Escherichia coli, read-out: MIC Ec50 efflux pump KO"}, "S. aureus Sa4 NCTC 6571": {"test_system": "S. aureus Sa4 NCTC 6571", "experiment": "Antibacterial activity assay (MIC), S. aureus Sa4", "assay_type": "cell-based", "details": "Staphylococcus aureus, NCTC6571; S. aureus Sa4 NCTC 6571, sensitive strain; read-out: MIC Sa4"}, "E. coli Ec1 ATCC 25922": {"test_system": "E. coli Ec1 ATCC 25922", "experiment": "Antibacterial activity assay (MIC), E. coli Ec1", "assay_type": "cell-based", "details": "Escherichia coli, ATCC25922; E. coli Ec1 ATCC 25922, sensitive strain; read-out: MIC Ec1"}, "[6]": {"test_system": "E. coli Ec113 efflux pump KO", "experiment": "microbe, parasite or virus in culture", "assay_type": "cell-based", "details": "Escherichia coli, read-out: MIC Ec113 efflux pump KO"}, "[7]": {"test_system": "S. aureus Sa26 ATCC 25923", "experiment": "Antibacterial activity assay (MIC), S. aureus Sa26", "assay_type": "cell-based", "details": "Staphylococcus aureus"}, "[8]": {"test_system": "S. aureus Sa2 clinical strain NCIMB 41953, MRSA", "experiment": "microbe, parasite or virus in culture", "assay_type": "cell-based", "details": "Staphylococcus aureus, read-out: MIC Sa2"}, "[9]": {"test_system": "H. influenza Hi3 ATCC 31517", "experiment": "organism not typed", "assay_type": "cell-based", "details": "read-out: MIC Hi3"}, "[10]": {"test_system": "Methicillin Resistant S. aureus (MRSA)", "experiment": "Neutropenic mouse thigh infection model", "details": "Thigh Sa"}, "[11]": {"details": "ATCC25923, read-out: MIC Sa26 + 10% SH, S. aureus Sa26 + 10% SH"}, "[12]": {"details": "ATCC25923, read-out: MIC Sa26 + 50% SH, S. aureus Sa26 + 50% SH"}, "[13]": {"details": "ATCC25923, S. aureus Sa26 ATCC 25923, sensitive strain, Mueller-Hinton Broth, 37° C., read-out: MIC Sa26"}, "[14]": {"details": "Study 1, 50 mg/kg SC BID, sample time 7 h PI"}, "[15]": {"details": "Study 2, 50 mg/kg SC BID, sample time 7 h PI"}, "[16]": {"details": "Study 3, 50 mg/kg SC BID, sample time 7 h PI"}, "[17]": {"details": "Study 4, 50 mg/kg SC BID, sample time 24 h PI"}, "[18]": {"details": "Study 5, 50 mg/kg SC BID, sample time 24 h PI"}, "[19]": {"details": "Study 6, 50 mg/kg SC BID, sample time 24 h PI"}, "[20]": {"details": "Study 7, 50 mg/kg SC BID, sample time 24 h PI"}, "[21]": {"details": "Study 8, 50 mg/kg SC QD, sample time 48 h PI"}, "[22]": {"details": "Study 9, 50 mg/kg SC BID, sample time 24 h PI"}, "[23]": {"details": "Study 6, 25 mg/kg PO BID, sample time 24 h PI"}, "[24]": {"details": "Study 7, 15 mg/kg PO BID, sample time 24 h PI"}, "[25]": {"details": "Study 7, 50 mg/kg PO BID, sample time 24 h PI"}, "[26]": {"details": "Study 8, 50 mg/kg PO QD, sample time 48 h PI"}, "[27]": {"details": "Study 9, 50 mg/kg PO BID, sample time 24 h PI"}}, "note": "Read-outs that look alike come from different tables or passages of the source.", "data": [{"molecule": "COC[C@@H]1[C@@H](O)[C@@H]2[C@H]3C=C[C@@H]4[C@@H](COC)C(=O)O[C@H]([C@H](O)COC)[C@H](C)/C=C(\\C)[C@@]24O[C@H]3[C@@H]1OC(=O)c1cc(Br)c(Br)o1", "note": "[Compound 36, 8-O-4,5-Dibromofurane-2′-carbonylbranimycin]", "values": [{"measurement": "IC50", "setting": "[1]", "result": "0.00136 to 1.36", "unit": "µM"}, {"measurement": "MIC", "setting": "[2]", "result": "> 64", "unit": "µg/mL"}, {"measurement": "MIC", "setting": "[3]", "result": "> 64", "unit": "µg/mL"}, {"measurement": "MIC", "setting": "[4]", "result": "> 64", "unit": "µg/mL"}, {"measurement": "MIC", "setting": "S. aureus Sa1 ATCC 13709", "result": 64, "unit": "µg/mL"}, {"measurement": "MIC", "setting": "[5]", "result": "> 64", "unit": "µg/mL"}, {"measurement": "MIC", "setting": "S. aureus Sa4 NCTC 6571", "result": 32, "unit": "µg/mL"}, {"measurement": "MIC", "setting": "E. coli Ec1 ATCC 25922", "result": "> 64", "unit": "µg/mL"}, {"measurement": "MIC", "setting": "[6]", "result": 64, "unit": "µg/mL"}, {"measurement": "MIC", "setting": "[7]; [11]", "result": "> 64", "unit": "µg/mL"}, {"measurement": "MIC", "setting": "[7]; [12]", "result": "> 64", "unit": "µg/mL"}, {"measurement": "MIC", "setting": "[7]; [13]", "result": "> 64", "unit": "µg/mL"}, {"measurement": "MIC", "setting": "[8]", "result": 64, "unit": "µg/mL"}, {"measurement": "MIC", "setting": "[9]", "result": "> 64", "unit": "µg/mL"}]}, {"molecule": "COC[C@@H]1[C@@H](O)[C@@H]2[C@H]3C=C[C@@H]4[C@@H](COC)C(=O)O[C@H]([C@H](O)COC)[C@H](C)/C=C(\\C)[C@@]24O[C@H]3[C@@H]1OC(=O)c1cc(F)c(F)[nH]1", "note": "[Compound 38, 8-O-4,5-Difluoro-1H-pyrrole-2′-carbonylbranimycin]", "values": [{"measurement": "MIC", "setting": "[2]", "result": "> 64", "unit": "µg/mL"}, {"measurement": "MIC", "setting": "[3]", "result": "> 64", "unit": "µg/mL"}, {"measurement": "MIC", "setting": "[4]", "result": "> 64", "unit": "µg/mL"}, {"measurement": "MIC", "setting": "S. aureus Sa1 ATCC 13709", "result": 32, "unit": "µg/mL"}, {"measurement": "MIC", "setting": "[5]", "result": "> 64", "unit": "µg/mL"}, {"measurement": "MIC", "setting": "S. aureus Sa4 NCTC 6571", "result": 16, "unit": "µg/mL"}, {"measurement": "MIC", "setting": "E. coli Ec1 ATCC 25922", "result": "> 64", "unit": "µg/mL"}, {"measurement": "MIC", "setting": "[6]", "result": 8, "unit": "µg/mL"}, {"measurement": "MIC", "setting": "[7]; [11]", "result": "> 64", "unit": "µg/mL"}, {"measurement": "MIC", "setting": "[7]; [12]", "result": 64, "unit": "µg/mL"}, {"measurement": "MIC", "setting": "[7]; [13]", "result": 64, "unit": "µg/mL"}, {"measurement": "MIC", "setting": "[8]", "result": 32, "unit": "µg/mL"}, {"measurement": "MIC", "setting": "[9]", "result": "> 64", "unit": "µg/mL"}]}, {"molecule": "O=C(O)c1cn(C2CC2)c2cc(N3CCNCC3)c(F)cc2c1=O", "note": "[Ciprofloxacin]", "values": [{"measurement": "Active", "setting": "[10]; [14]", "result": "N"}, {"measurement": "Log reduction vs. untreated", "setting": "[10]; [14]", "result": "−1.27"}, {"measurement": "Active", "setting": "[10]; [15]", "result": "N"}, {"measurement": "Log reduction vs. untreated", "setting": "[10]; [15]", "result": "−1.07"}, {"measurement": "Active", "setting": "[10]; [16]", "result": "N"}, {"measurement": "Log reduction vs. untreated", "setting": "[10]; [16]", "result": 0.22}, {"measurement": "Active", "setting": "[10]; [17]", "result": "N"}, {"measurement": "Log reduction vs. untreated", "setting": "[10]; [17]", "result": "−0.05"}, {"measurement": "Active", "setting": "[10]; [18]", "result": "N"}, {"measurement": "Log reduction vs. untreated", "setting": "[10]; [18]", "result": "−0.27"}, {"measurement": "Active", "setting": "[10]; [19]", "result": "N"}, {"measurement": "Log reduction vs. untreated", "setting": "[10]; [19]", "result": "−0.26"}, {"measurement": "Active", "setting": "[10]; [20]", "result": "N"}, {"measurement": "Log reduction vs. untreated", "setting": "[10]; [20]", "result": "−0.08"}, {"measurement": "Active", "setting": "[10]; [21]", "result": "N"}, {"measurement": "Log reduction vs. untreated", "setting": "[10]; [21]", "result": "−0.39"}, {"measurement": "Active", "setting": "[10]; [22]", "result": "N"}, {"measurement": "Log reduction vs. untreated", "setting": "[10]; [22]", "result": "−1.28"}]}, {"molecule": "COC[C@@H]1[C@@H](O)[C@@H]2[C@H]3C=C[C@@H]4[C@@H](COC)C(=O)O[C@H]([C@H](O)COC)[C@H](C)/C=C(\\C)[C@@]24O[C@H]3[C@@H]1OC(=O)c1cc(Br)c(F)[nH]1", "note": "[Compound 37, 8-O-4-Bromo-5-Fluoro-1H-pyrrole-2′-carbonylbranimycin]", "values": [{"measurement": "IC50", "setting": "[1]", "result": "0.00149 to 1.49", "unit": "µM"}, {"measurement": "MIC", "setting": "[2]", "result": "> 64", "unit": "µg/mL"}, {"measurement": "MIC", "setting": "[3]", "result": "> 64", "unit": "µg/mL"}, {"measurement": "MIC", "setting": "[4]", "result": "> 64", "unit": "µg/mL"}, {"measurement": "MIC", "setting": "S. aureus Sa1 ATCC 13709", "result": "> 64", "unit": "µg/mL"}, {"measurement": "MIC", "setting": "[5]", "result": "> 64", "unit": "µg/mL"}, {"measurement": "MIC", "setting": "S. aureus Sa4 NCTC 6571", "result": 64, "unit": "µg/mL"}, {"measurement": "MIC", "setting": "E. coli Ec1 ATCC 25922", "result": "> 64", "unit": "µg/mL"}, {"measurement": "MIC", "setting": "[6]", "result": 16, "unit": "µg/mL"}, {"measurement": "MIC", "setting": "[7]; [11]", "result": "> 64", "unit": "µg/mL"}, {"measurement": "MIC", "setting": "[7]; [12]", "result": "> 64", "unit": "µg/mL"}, {"measurement": "MIC", "setting": "[7]; [13]", "result": 64, "unit": "µg/mL"}, {"measurement": "MIC", "setting": "[8]", "result": 64, "unit": "µg/mL"}, {"measurement": "MIC", "setting": "[9]", "result": "> 64", "unit": "µg/mL"}]}, {"molecule": "CC(=O)NC[C@H]1CN(c2ccc(N3CCOCC3)c(F)c2)C(=O)O1", "note": "[Linezolid]", "values": [{"measurement": "Log reduction vs. untreated", "setting": "[10]; Study 5, 50 mg/kg PO BID, sample time 24 h PI", "result": "−4.07"}, {"measurement": "Active", "setting": "[10]; [18]", "result": "Y"}, {"measurement": "Active", "setting": "[10]; [23]", "result": "Y"}, {"measurement": "Log reduction vs. untreated", "setting": "[10]; [23]", "result": "−4.54"}, {"measurement": "Log reduction vs. untreated", "setting": "[10]; Study 6, 50 mg/kg PO BID, sample time 24 h PI", "result": "−3.49"}, {"measurement": "Active", "setting": "[10]; [24]", "result": "Y"}, {"measurement": "Log reduction vs. untreated", "setting": "[10]; [24]", "result": "−2.98"}, {"measurement": "Active", "setting": "[10]; [25]", "result": "Y"}, {"measurement": "Log reduction vs. untreated", "setting": "[10]; [25]", "result": "−5.13"}, {"measurement": "Active", "setting": "[10]; [26]", "result": "Y"}, {"measurement": "Log reduction vs. untreated", "setting": "[10]; [26]", "result": "−2.78"}, {"measurement": "Active", "setting": "[10]; [27]", "result": "Y"}, {"measurement": "Log reduction vs. untreated", "setting": "[10]; [27]", "result": "−4.01"}]}]}
